{
  "source": "PubChem BioAssay AID1996",
  "data": [
    {"conditions": "buffer; pH 7.4; 200.0 µM", "units": {"solubility kinetic": "µg/mL"}, "values": [
      {"smiles": "CN(C)CCNc1ncnc2sc(-c3ccccc3)cc12", "solubility kinetic": 39.7},
      {"smiles": "Cc1ccc(NC(=O)c2ccc3c(c2)OCCO3)nc1", "solubility kinetic": "> 40.5"},
      {"smiles": "COc1ccc(-c2csc3ncnc(Cl)c23)cc1", "solubility kinetic": 0.6},
      {"smiles": "COc1ccc(-c2noc(CCC(=O)NCCc3ccccc3)n2)cc1", "solubility kinetic": 5.4},
      {"smiles": "CN(Cc1ccccc1)C(=O)COC(=O)c1ccc(Br)o1", "solubility kinetic": "> 52.8"},
      {"smiles": "CC(C)NCc1cc(Br)ccc1OCc1ccccc1.Cl", "solubility kinetic": "> 55.6"},
      {"smiles": "COc1ccc(OC)c(NC(=O)c2nc3ccccc3s2)c1", "solubility kinetic": "< 0.3"},
      {"smiles": "O=C(Nc1ccc(Cl)cc1F)C1CC(=O)N(Cc2ccco2)C1", "note": "(stereo unspecified)", "solubility kinetic": "> 50.5"},
      {"smiles": "CC(=O)N1CCN(C(=O)c2cc(=O)c3ccccc3o2)CC1", "solubility kinetic": "> 45"},
      {"smiles": "CC(C)C1N(C(=O)N(C)C)CCN1S(=O)(=O)c1ccccc1", "note": "(stereo unspecified)", "solubility kinetic": "> 48.8"},
      {"smiles": "CN1C(=O)C(c2ccc([N+](=O)[O-])cc2[N+](=O)[O-])C(=O)N(C)C1=O", "solubility kinetic": "> 48.3"},
      {"smiles": "O=C1NC2=C(C(=O)CCC2)C(c2ccc(OC(F)F)cc2)N1", "note": "(stereo unspecified)", "solubility kinetic": 41.8},
      {"smiles": "CC(C)c1ccc(S(=O)(=O)NC2CCS(=O)(=O)C2)cc1", "note": "(stereo unspecified)", "solubility kinetic": "> 47.6"},
      {"smiles": "c1ccc2c3c(c(CN4CCCC4)cc2c1)COC3", "solubility kinetic": "> 38"},
      {"smiles": "O=C(Nc1ccccc1)c1cn2ccccc2n1", "solubility kinetic": 14.7},
      {"smiles": "C=CCn1c(C)nnc1SCC(=O)NC1CC1", "solubility kinetic": "> 37.9"},
      {"smiles": "O=C(Nc1ccccc1)Nc1cccc2ccccc12", "solubility kinetic": 0.3},
      {"smiles": "CCCCCCc1c(C)[nH]c2nc3ccccc3n2c1=O", "solubility kinetic": "< 0.2"},
      {"smiles": "O=C(CN1C(=O)S/C(=C\\c2ccccn2)C1=O)Nc1ccc(F)cc1", "solubility kinetic": 0.9},
      {"smiles": "CC(=O)Cn1ncc(N2CCOCC2)c(Br)c1=O", "solubility kinetic": "> 47.4"},
      {"smiles": "O=C(Nc1ccc(O)cc1)c1ccc(NC(=O)c2ccco2)cc1", "solubility kinetic": 1.8},
      {"smiles": "CCn1c(SCC(=O)NC2CC2)nnc1-c1csc(C)c1", "solubility kinetic": "> 48.4"},
      {"smiles": "O=c1oc2ccccc2n1Cc1ccccc1", "solubility kinetic": 8.6},
      {"smiles": "Cc1cc(C)c(C#N)c(Nc2ccc(F)cc2)n1", "solubility kinetic": 0.8},
      {"smiles": "COc1ccccc1NC(=O)C(C)N(C)CCOc1ccccc1", "note": "(stereo unspecified)", "solubility kinetic": 23.1},
      {"smiles": "CCC(C)N(C(=O)CSc1nncn1C)C1CCS(=O)(=O)C1", "note": "(stereo unspecified)", "solubility kinetic": "> 52"},
      {"smiles": "CC(C)c1ccccc1NS(=O)(=O)c1cccs1", "solubility kinetic": 28.2},
      {"smiles": "Cc1cc(C)cc(N2C(N)=NC(N)=NC2c2ccccc2F)c1.Cl", "note": "(stereo unspecified)", "solubility kinetic": "> 52.2"},
      {"smiles": "COc1ccccc1NC(=S)N(Cc1ccccc1)Cc1cccnc1", "solubility kinetic": 45.8},
      {"smiles": "O=C(CCCC(=O)c1ccccc1)Nc1ccc(O)cc1", "solubility kinetic": "> 42.5"},
      {"smiles": "O=C(O)CC(c1ccccc1)N1C(=O)c2ccccc2C1=O", "note": "(stereo unspecified)", "solubility kinetic": 43.9},
      {"smiles": "CCc1ccc(NC(=S)Nc2ccc3[nH]c(=O)[nH]c3c2)cc1", "solubility kinetic": 13.5},
      {"smiles": "S=C(c1ccc(OCc2ccccc2)cc1)N1CCCC1", "solubility kinetic": "< 0.6"},
      {"smiles": "CCOc1ccc(Cc2c(C)[nH]c3ccc(C(=O)O)cc3c2=S)cc1", "solubility kinetic": 36.2},
      {"smiles": "CC1COc2ccccc2N1C(=O)c1ccc(Cl)cc1", "note": "(stereo unspecified)", "solubility kinetic": 31.3},
      {"smiles": "Cc1ccc(NC(=O)C2CCCN(c3nccc(C)n3)C2)c(C)c1", "note": "(stereo unspecified)", "solubility kinetic": 2.2},
      {"smiles": "COC(=O)CSc1ncc(S(=O)(=O)c2ccccc2)c(=O)[nH]1", "solubility kinetic": "> 51.1"},
      {"smiles": "COc1cc(-c2nnc(SCC(=O)Nc3ccc(C(=O)O)cc3)o2)cc(OC)c1OC", "solubility kinetic": "> 66.8"},
      {"smiles": "O=S(=O)(NCCC1CC1(Cl)Cl)c1ccc(Cl)cc1", "note": "(stereo unspecified)", "solubility kinetic": 45.9},
      {"smiles": "Cc1cc(Cl)ccc1NC(=O)CN1CCCC1", "solubility kinetic": "> 37.9"},
      {"smiles": "CC(=O)c1c(OC(=O)c2cccc(Cl)c2)c2ccccc2n1C", "solubility kinetic": "< 0.7"},
      {"smiles": "CN(C)C(=O)COc1ncnc2scc(-c3ccc(F)cc3)c12", "solubility kinetic": 45.8},
      {"smiles": "O=C(C1CC2C=CC1C2)N1CCN(c2ccccc2)CC1", "note": "(stereo unspecified)", "solubility kinetic": "> 42.4"},
      {"smiles": "O=C(O)C1CCc2sc3[nH]c(=S)n(-c4ccccc4)c(=O)c3c21", "note": "(stereo unspecified)", "solubility kinetic": "> 51.7"},
      {"smiles": "COc1ccc(C/C(N)=N/OC(=O)CCc2ccccc2)cc1", "solubility kinetic": 7.7},
      {"smiles": "Cc1ccc(C(=O)NC(=S)Nc2ccc3[nH]c(=O)[nH]c3c2)c(C)c1", "solubility kinetic": "< 0.2"},
      {"smiles": "COc1cc([N+](=O)[O-])ccc1NC(=O)Cc1ccccc1", "solubility kinetic": 5.5},
      {"smiles": "CCc1ccc(NC(=O)C(C)OC(=O)Cc2cc(OC)c(OC)c(OC)c2)cc1", "note": "(stereo unspecified)", "solubility kinetic": "> 60.2"},
      {"smiles": "CCOC(=O)N1CCN(c2ccnc3cc(Cl)ccc23)CC1", "solubility kinetic": 43.9},
      {"smiles": "COC(=O)c1cc(OC)c(OC)cc1N1C(=O)CCCC1=O", "solubility kinetic": "> 46.1"},
      {"smiles": "CCN(Cc1ccncc1)C(=S)NCc1ccccc1", "solubility kinetic": 42.1},
      {"smiles": "Cc1cccnc1Nc1ncnc(N)c1[N+](=O)[O-]", "solubility kinetic": 36.3},
      {"smiles": "CC(C)COc1nc2ccccc2nc1N1CCN(C)CC1", "solubility kinetic": 33.9},
      {"smiles": "O=C(Cn1c(CO)nc2ccccc21)Nc1ccc2c(c1)OCCCO2", "solubility kinetic": "> 53"},
      {"smiles": "COc1cc(C(=O)N2CCC(C(N)=O)CC2)ccc1OCc1c(C)noc1C", "solubility kinetic": "> 58.1"},
      {"smiles": "CC(OC(=O)c1ccc2c(c1)S(=O)(=O)c1ccccc1C2=O)C(N)=O", "note": "(stereo unspecified)", "solubility kinetic": 29.3},
      {"smiles": "Cc1noc(C(=O)Nc2ccc(F)cc2F)c1Cl", "solubility kinetic": 13.2},
      {"smiles": "Cc1ccc(S(=O)(=O)Nc2cccc3ncccc23)cc1", "solubility kinetic": 31.1},
      {"smiles": "O=C(COC(=O)c1ccc2c(c1)OCCO2)Nc1ccc(F)cc1", "solubility kinetic": 2.6},
      {"smiles": "Cc1ccccc1NC(=S)N1CCN(c2ccccc2)CC1", "solubility kinetic": 0.6},
      {"smiles": "CCCCCCCn1c(C)nnc1-c1cnn(C)c1N", "solubility kinetic": "> 41.5"},
      {"smiles": "COc1cccc(C(=O)Nc2cccc3cccnc23)c1OC", "solubility kinetic": "< 0.3"},
      {"smiles": "CC1CCN(CC(C)OC(=O)c2ccco2)CC1.Cl", "note": "(stereo unspecified)", "solubility kinetic": "> 43.2"},
      {"smiles": "O=C(CCc1ccccc1)N1CCN(c2ccccc2F)CC1", "solubility kinetic": 45.7},
      {"smiles": "COc1cc(C(=S)N2CCOCC2)ccc1OC(=O)c1ccccc1C", "solubility kinetic": 10.3},
      {"smiles": "O=C(NCC(=O)N1CCc2ccccc2C1)c1ccccc1Cl", "solubility kinetic": "> 49.3"},
      {"smiles": "CC1(C(=O)NC2CCCCC2)CCC(=O)N1Cc1ccc2c(c1)OCO2", "note": "(stereo unspecified)", "solubility kinetic": 44.4},
      {"smiles": "CN(c1ccccc1)c1nc(N)c([N+](=O)[O-])c(N2CCCC2)n1", "solubility kinetic": 20.9},
      {"smiles": "CCc1cc(=O)[nH]c(SCc2cccc3ccccc23)n1", "solubility kinetic": 2.8},
      {"smiles": "COC(=O)Cc1ccc(Oc2ncc(C(F)(F)F)cc2Cl)cc1", "solubility kinetic": 8.5},
      {"smiles": "O=C(O)c1ccc(S(=O)(=O)NCc2cccnc2)cc1", "solubility kinetic": "> 43.8"},
      {"smiles": "COc1ccc(C(=O)NCCCCc2ccccc2)cc1", "solubility kinetic": 2.9},
      {"smiles": "O=C(OCc1ccccc1)c1cnc(Cl)c(Cl)c1", "solubility kinetic": 2.1},
      {"smiles": "O=C(Cc1cccs1)Nc1ccc(F)cc1F", "solubility kinetic": 30},
      {"smiles": "O=[N+]([O-])c1cccc(/C=C/c2ccc3cccc(O)c3n2)c1", "solubility kinetic": "< 0.3"},
      {"smiles": "CNC(=O)Cn1nc(C)c(S(=O)(=O)N2CCOCC2)c1C", "solubility kinetic": "> 47.5"},
      {"smiles": "CN(C)S(=O)(=O)N1CCN(c2ccc([N+](=O)[O-])c(NC3CC3)c2)CC1", "solubility kinetic": 0.6},
      {"smiles": "CN(C)CCCn1c(N)c(C#N)c2nc3ccccc3nc21", "solubility kinetic": "> 44.2"},
      {"smiles": "Cn1c(N)c(C(=O)COC(=O)c2ccc(-c3ccccc3)cc2)c(=O)n(C)c1=O", "solubility kinetic": 6.8},
      {"smiles": "O=C(NN1CCOCC1)c1cccc(Br)c1", "solubility kinetic": "> 42.8"},
      {"smiles": "COc1ccc(/C=C/C(=O)N2CCCc3ccccc32)c(OC)c1", "solubility kinetic": 6.7},
      {"smiles": "Cc1ccc(-c2nc3ccccn3c2C=O)cc1", "solubility kinetic": 8.5},
      {"smiles": "CCOC(=O)C1=C(O)C(=O)N(C2CCCCC2)C1", "solubility kinetic": "> 38"},
      {"smiles": "COc1ccc(CC(=O)O/N=C(\\N)c2ccncc2)cc1", "solubility kinetic": 39.9},
      {"smiles": "CC(=O)c1cccc(NC(=O)Nc2ccc3c(c2)CCC3)c1", "solubility kinetic": 0.3},
      {"smiles": "Cc1ccc(SCC(=O)NC(=O)NC(C)C)c(C)c1", "solubility kinetic": 20}
    ]}
  ]
}
